Measured values taken from paper PMC6811539, “Minute-scale persistence of a GPCR conformation state triggered by non-cognate G protein interactions primes signaling” (Nature Communications, 2019).

Experiments:
[1] = target: T1, β2-AR-mCer (Homo sapiens, UniProt P07550); test: competition pull-down assay, displacement of PC-Qp (fragments) from β2-AR-mCer membranes; format: binding; conditions: PC-Qp 50 μM; thirty seconds after UV irradiation
T1 construct: expressed in transfected cells; host or cells: native membranes of transiently transfected HEK293T cells
Procedure: Native membranes were prepared from cells expressing β2-mCer and were stored in sucrose-supplemented buffer A as described above (Membrane preparations). Membranes were sonicated (3× bursts, 15 s with 1 min pauses) and resuspended in ΔFRET buffer minus Ca^2+ to a concentration of 10 nM receptor based on fluorescence counts. bioQp (30 μM)/30 μM bioQp + 30 μM Qp/30 μM bioQp + 50 μM Qp, and 100 μM isoproterenol were added and mixed for 5 min. Samples were split into duplicates, one of which was not manipulated in any way to obtain the total receptor counts. To the other tube, 20 μl of 0.4 mg/ml streptavidin-coated magnetic beads were added, mixed, and precipitated using a Neodymium disc magnet N52 (20 × 40 mm). Supernatant was removed to a fresh micro-centrifuge tube to monitor fluorescence of receptors not bound to the beads. Percentage of receptors bound to the beads was calculated by subtracting the unbound from the total (duplicate). The experiment was repeated with UV exposure for 2 min, followed by the addition and pulldown using the magnetic beads.

[2] = test system: β2-AR-Sp SPASM sensor; test: ΔFRET assay of β2-AR activation on native membranes with β2-AR-Sp SPASM sensor; format: biochemical, human; parameters: mean ΔFRET: unit of the concentration uncertain; conditions: for mean ΔFRET: SuppFig 3c
Procedure: Membranes were prepared following a published protocol[56] from HEK293T cells transiently transfected with the appropriate DNA (β2-AR-mCherry, β2-mCerulean, V1AR-mCherry, β2-AR-ICL3 or β2-AR-Sp). Cells were collected in culture medium and washed twice with PBS by centrifugation (300 × g, 3 min, ambient temperature). Cell pellets were incubated with an ice-cold hypotonic buffer (solution A: 10 mM HEPES, 1 mM EGTA, pH 7.2) for 30 min on ice. Cells in solution A were lysed gently (30 strokes) in a chilled Dounce homogenizer in the presence of 1.5 μg/mL aprotinin, 1.5 μg/mL leupeptin, 5 μg/mL phenylmethylsulfonyl fluoride (PMSF) and 1 mM dithiothreitol (DTT). Nuclei and intact cells were eliminated by centrifugation at 1000 × g, 5 min, 4 °C. All subsequent centrifugation steps were performed in a TLA100.4 rotor at 135,000 × g, 30 min, 4 °C. Native membranes were washed with 20 mM HEPES, 100 mM NaCl, 5 mM MgCl2, 100 μM GDP in the presence of 1.5 μg/mL aprotinin, 1.5 μg/mL leupeptin, 5 μg/mL PMSF, and 1 mM DTT, and were stored in the same buffer with 12% sucrose. For experiments to monitor Gα peptide–GPCR interactions using ΔFRET response, the native β2-AR-Sp sensor-containing membranes were washed in buffer containing 20 mM HEPES, 100 mM NaCl, 45 mM KCl, 5 mM MgCl2, and 100 μM GDP, and were stored in sucrose (12% w/v)-supplemented wash buffer.
Native membranes were collected from HEK293T cells expressing either the β2-AR-Sp SPASM sensor or the β2-AR-ICL3 conformational sensor. Frozen membranes were thawed and handled on ice. The membranes were resuspended by sonication to a concentration of 100 nM sensor (1 × 10^6 mCer cps) in 20 mM HEPES, 100 mM NaCl, 45 mM KCl, 5 mM MgCl2, pH 7.4 (ΔFRET buffer minus Ca^2+) in the presence of 1.5 μg/mL aprotinin, 1.5 μg/mL leupeptin, and 5 μg/mL PMSF. Indicated peptides were added to 30 μM (50 μM for PC-Qp) in a sample volume of 1 mL. The sample was aliquoted as 90 μl into ten replicate tubes—five labeled ISO and five buffer. Agonist solution (ISO) containing 1 mM Isoproterenol and 1 mM ascorbic acid was prepared in ΔFRET buffer minus Ca^2+. […]

DTENIRFVFAAVKDTILQLNLKE(Anp)NLV [PC-Qp, photocleavable Qp, Y356 replaced by Anp]
competition with bioQp for receptor binding [1]: no longer competes with bioQp for interaction with the receptor | mean ΔFRET ([2]; PCQp (30 µM)): 0.018 | mean ΔFRET ([2]; PCQp (50 µM)): 0.024 | duration of sustained FRET response after peptide removal ([2]; β2-AR-Sp sensor, ISO 100 μM, depletion (bioQp) or photocleavage (PC-Qp)): 120 s
